PMC5218480 (PLoS ONE, 2017)

System: MV-4-11 cells
Experiment: Gene expression microarray analysis (Affymetrix PrimeView) and GSEA
Assay type: cell-based, human
Parameters: RFU PODN (11730768_x_at) / Fold change /veh PODN (11730768_x_at) / RFU LINC00158 (11744669_a_at) / Fold change /veh LINC00158 (11744669_a_at) / RFU DUSP10 (11751237_a_at) / Fold change /veh DUSP10 (11751237_a_at) / RFU ID3 (11757404_x_at) / Fold change /veh ID3 (11757404_x_at) / RFU PLEKHG5 (11737974_s_at) / Fold change /veh PLEKHG5 (11737974_s_at) / RFU LRRC4B (11730491_at) / Fold change /veh LRRC4B (11730491_at) / RFU GIMAP4 (11747438_a_at) / Fold change /veh GIMAP4 (11747438_a_at) / RFU KRT8 (11758183_x_at) / Fold change /veh KRT8 (11758183_x_at) / RFU CNN1 (11734310_a_at) / Fold change /veh CNN1 (11734310_a_at) / RFU VPS37D (11726825_at) / Fold change /veh VPS37D (11726825_at) / RFU C10orf10 (11716522_x_at) / Fold change /veh C10orf10 (11716522_x_at) / RFU KIR2DL2 /// KIR2DL4 /// KIR2DL5A /// KIR2DL5B /// KIR2DS1 /// KIR2DS2 /// KIR2DS3 /// KIR2DS4 /// KIR3DL3 /// KIR3DL3 /// KIR3DS1 (11738374_at) / Fold change /veh KIR2DL2 /// KIR2DL4 /// KIR2DL5A /// KIR2DL5B /// KIR2DS1 /// KIR2DS2 /// KIR2DS3 /// KIR2DS4 /// KIR3DL3 /// KIR3DL3 /// KIR3DS1 (11738374_at) / RFU C1QL1 (11718748_at) / Fold change /veh C1QL1 (11718748_at) / RFU TMPRSS4 (11747572_a_at) / Fold change /veh TMPRSS4 (11747572_a_at) / RFU HAMP (11756126_x_at) / Fold change /veh HAMP (11756126_x_at) / RFU RNFT2 (11725882_a_at) / Fold change /veh RNFT2 (11725882_a_at) / RFU NR4A2 (11747474_a_at) / Fold change /veh NR4A2 (11747474_a_at) / RFU ABCC12 (11746883_a_at) / Fold change /veh ABCC12 (11746883_a_at) / RFU TMEM136 (11760407_x_at) / Fold change /veh TMEM136 (11760407_x_at) / RFU CLDN22 /// WWC2 (11732394_at) / Fold change /veh CLDN22 /// WWC2 (11732394_at) / RFU HLA-DPB1 (11760878_x_at) / Fold change /veh HLA-DPB1 (11760878_x_at) / RFU SPINT1 (11716480_a_at) / Fold change /veh SPINT1 (11716480_a_at) / RFU GAP43 (11754022_s_at) / Fold change /veh GAP43 (11754022_s_at) / RFU A4GNT (11735810_at) / Fold change /veh A4GNT (11735810_at) / RFU PRB3 (11715151_x_at) / Fold change /veh PRB3 (11715151_x_at) / RFU TUBB4B (11761932_at) / Fold change /veh TUBB4B (11761932_at) / RFU CAPN14 (11732068_a_at) / Fold change /veh CAPN14 (11732068_a_at) / RFU TMCC2 (11721928_a_at) / Fold change /veh TMCC2 (11721928_a_at) / RFU IRGQ (11745062_a_at) / Fold change /veh IRGQ (11745062_a_at) / RFU FAM174B (11720279_a_at) / Fold change /veh FAM174B (11720279_a_at) / RFU TMPRSS4 (11748680_a_at) / Fold change /veh TMPRSS4 (11748680_a_at) / RFU FAM212B (11763350_a_at) / Fold change /veh FAM212B (11763350_a_at) / RFU PLEKHG5 (11743358_a_at) / Fold change /veh PLEKHG5 (11743358_a_at) / RFU ZSCAN30 (11745921_a_at) / Fold change /veh ZSCAN30 (11745921_a_at) / RFU CMKLR1 (11741424_a_at) / Fold change /veh CMKLR1 (11741424_a_at) / RFU LOC101060620 /// MAPK8IP1 (11723275_at) / Fold change /veh LOC101060620 /// MAPK8IP1 (11723275_at) / RFU SPTSSB (11747773_x_at) / Fold change /veh SPTSSB (11747773_x_at) / RFU PRSS12 (11739890_at) / Fold change /veh PRSS12 (11739890_at) / RFU BIN1 (11741810_x_at) / Fold change /veh BIN1 (11741810_x_at) / RFU WNT11 (11732464_a_at) / Fold change /veh WNT11 (11732464_a_at) / RFU C10orf10 (11716521_a_at) / Fold change /veh C10orf10 (11716521_a_at) / RFU C5orf56 (11738089_at) / Fold change /veh C5orf56 (11738089_at) / RFU CYB561 (11721691_x_at) / Fold change /veh CYB561 (11721691_x_at) / RFU ANKRD19P (11752326_a_at) / Fold change /veh ANKRD19P (11752326_a_at) / RFU OR2T12 /// OR2T33 /// OR2T8 (11738714_s_at) / Fold change /veh OR2T12 /// OR2T33 /// OR2T8 (11738714_s_at) / RFU VCAN (11748164_a_at) / Fold change /veh VCAN (11748164_a_at) / RFU JSRP1 (11732532_at) / Fold change /veh JSRP1 (11732532_at) / RFU KRTAP10-11 (11738290_x_at) / Fold change /veh KRTAP10-11 (11738290_x_at) / RFU MYO3A (11730013_a_at) / Fold change /veh MYO3A (11730013_a_at) / RFU EBF3 (11725865_a_at) / Fold change /veh EBF3 (11725865_a_at) / RFU CAMK2N1 (11719241_x_at) / Fold change /veh CAMK2N1 (11719241_x_at) / RFU C5orf56 (11738088_a_at) / Fold change /veh C5orf56 (11738088_a_at) / RFU OLFML3 (11715873_a_at) / Fold change /veh OLFML3 (11715873_a_at) / RFU LOC100653217 /// NTM (11731650_a_at) / Fold change /veh LOC100653217 /// NTM (11731650_a_at) / RFU MAPK11 (11762145_a_at) / Fold change /veh MAPK11 (11762145_a_at) / RFU FIZ1 (11724087_x_at) / Fold change /veh FIZ1 (11724087_x_at) / RFU OASL (11726364_x_at) / Fold change /veh OASL (11726364_x_at) / RFU SOX15 (11748057_x_at) / Fold change /veh SOX15 (11748057_x_at) / RFU CD79A (11719716_a_at) / Fold change /veh CD79A (11719716_a_at) / RFU HIST1H1D (11736915_at) / Fold change /veh HIST1H1D (11736915_at) / RFU CASKIN2 (11723855_a_at) / Fold change /veh CASKIN2 (11723855_a_at) / RFU LOC730098 (11760151_x_at) / Fold change /veh LOC730098 (11760151_x_at) / RFU OR4N2 (11742367_at) / Fold change /veh OR4N2 (11742367_at) / RFU PRRT2 (11749266_a_at) / Fold change /veh PRRT2 (11749266_a_at) / RFU SNX32 (11753110_a_at) / Fold change /veh SNX32 (11753110_a_at) / RFU CDHR5 (11726645_a_at) / Fold change /veh CDHR5 (11726645_a_at) / RFU RCAN1 (11760418_a_at) / Fold change /veh RCAN1 (11760418_a_at) / RFU FAM167A (11723789_a_at) / Fold change /veh FAM167A (11723789_a_at) / RFU FAM26E (11764081_at) / Fold change /veh FAM26E (11764081_at) / RFU ISYNA1 (11749810_s_at) / Fold change /veh ISYNA1 (11749810_s_at) / RFU ACY1 (11761880_at) / Fold change /veh ACY1 (11761880_at) / RFU 11764098_at / Fold change /veh 11764098_at / RFU SAMD14 (11745864_x_at) / Fold change /veh SAMD14 (11745864_x_at) / RFU NPB (11741838_a_at) / Fold change /veh NPB (11741838_a_at) / RFU TMPRSS6 (11731388_a_at) / Fold change /veh TMPRSS6 (11731388_a_at) / RFU KRTAP10-2 (11738614_at) / Fold change /veh KRTAP10-2 (11738614_at) / RFU ARHGAP8 /// PRR5-ARHGAP8 (11727945_x_at) / Fold change /veh ARHGAP8 /// PRR5-ARHGAP8 (11727945_x_at) / RFU KRTAP5-7 /// NADSYN1 (11734609_at) / Fold change /veh KRTAP5-7 /// NADSYN1 (11734609_at) / RFU RASL12 (11751679_a_at) / Fold change /veh RASL12 (11751679_a_at) / RFU CDKN2B (11736163_a_at) / Fold change /veh CDKN2B (11736163_a_at) / RFU PRF1 (11729649_at) / Fold change /veh PRF1 (11729649_at) / RFU, ZNF638 /// ZNF638-IT1 / Fold change vs veh, ZNF638 /// ZNF638-IT1 / RFU, PANK3 / Fold change vs veh, PANK3 / RFU, SH3YL1 / Fold change vs veh, SH3YL1 / RFU, ZEB2 / Fold change vs veh, ZEB2 / RFU, NRIP1 / Fold change vs veh, NRIP1 / RFU, PTTG1IP / Fold change vs veh, PTTG1IP / RFU, CAPN2 / Fold change vs veh, CAPN2 / RFU, MED14 / Fold change vs veh, MED14 / RFU, SNORA58 / Fold change vs veh, SNORA58 / RFU, C1orf63 / Fold change vs veh, C1orf63 / RFU, LRRFIP1 / Fold change vs veh, LRRFIP1 / RFU, NDUFAF7 / Fold change vs veh, NDUFAF7 / RFU, SLC12A2 / Fold change vs veh, SLC12A2 / RFU, IBTK / Fold change vs veh, IBTK / RFU, ESF1 / Fold change vs veh, ESF1 / Fold change vs veh, TMEM50B / RFU, TAOK1 / Fold change vs veh, TAOK1 / RFU, ACBD3 / Fold change vs veh, ACBD3 / RFU, TMA16 / Fold change vs veh, TMA16 / RFU, RWDD3 / Fold change vs veh, RWDD3 / RFU, BCAT1 / Fold change vs veh, BCAT1 / RFU, EDEM3 / Fold change vs veh, EDEM3 / RFU, TMEM33 / Fold change vs veh, TMEM33 / RFU, WDR75 / Fold change vs veh, WDR75 / RFU, AHCTF1 / Fold change vs veh, AHCTF1 / RFU, TFRC / Fold change vs veh, TFRC / RFU, ZDHHC17 / Fold change vs veh, ZDHHC17 / RFU, NOM1 / Fold change vs veh, NOM1 / RFU, ARL8B / Fold change vs veh, ARL8B / RFU, ZBTB11 / Fold change vs veh, ZBTB11 / RFU, TAMM41 / Fold change vs veh, TAMM41 / RFU, KIAA1704 /// LOC100996395 / Fold change vs veh, KIAA1704 /// LOC100996395 / RFU, ING1 / Fold change vs veh, ING1 / RFU, TRMT61B / Fold change vs veh, TRMT61B / RFU, FUBP3 / Fold change vs veh, FUBP3 / RFU, TP53 / Fold change vs veh, TP53 / RFU, TNKS2 / Fold change vs veh, TNKS2 / RFU, ZFP14 / Fold change vs veh, ZFP14 / RFU, ACTR2 / Fold change vs veh, ACTR2 / RFU, PPP3R1 / Fold change vs veh, PPP3R1 / RFU, PIK3R1 / Fold change vs veh, PIK3R1 / RFU, HNRNPA1 / Fold change vs veh, HNRNPA1 / RFU, RNF170 / Fold change vs veh, RNF170 / RFU, ZNF28 / Fold change vs veh, ZNF28 / RFU, RNGTT / Fold change vs veh, RNGTT / RFU, OGT / Fold change vs veh, OGT / RFU, BRD1 / Fold change vs veh, BRD1 / RFU, MARS / Fold change vs veh, MARS / RFU, ZNF655 / Fold change vs veh, ZNF655 / RFU, FAHD1 / Fold change vs veh, FAHD1 / RFU, BDP1 / Fold change vs veh, BDP1 / RFU, LRRCC1 / Fold change vs veh, LRRCC1 / RFU, ARID1A / Fold change vs veh, ARID1A / RFU, ZNF146 / Fold change vs veh, ZNF146 / RFU, ZNF330 / Fold change vs veh, ZNF330 / RFU, GPN3 / Fold change vs veh, GPN3 / RFU, C9orf123 / Fold change vs veh, C9orf123 / RFU, N4BP2L2 / Fold change vs veh, N4BP2L2 / RFU, ARFIP1 / Fold change vs veh, ARFIP1 / RFU, FAM179B / Fold change vs veh, FAM179B / RFU, BCL10 / Fold change vs veh, BCL10 / RFU, UHRF1BP1L / Fold change vs veh, UHRF1BP1L / RFU, BET1 / Fold change vs veh, BET1 / RFU, CNOT2 / Fold change vs veh, CNOT2 / RFU, ZNF268 / Fold change vs veh, ZNF268 / Fold change vs veh, ZNF507 / RFU, DGCR2 / Fold change vs veh, DGCR2 / RFU, WDSUB1 / Fold change vs veh, WDSUB1 / Fold change vs veh, HSP90B1 /// MIR3652 / RFU, ADSS / Fold change vs veh, ADSS / RFU, GK / Fold change vs veh, GK / RFU, ZNF148 / Fold change vs veh, ZNF148 / RFU, TAF9 / Fold change vs veh, TAF9 / RFU, SLC1A5 / Fold change vs veh, SLC1A5 / RFU, SLMO2 / Fold change vs veh, SLMO2 / RFU, ABCC4 / Fold change vs veh, ABCC4 / RFU, LOC101060439 /// RAP1B / Fold change vs veh, LOC101060439 /// RAP1B / RFU, RFX7 / Fold change vs veh, RFX7 / RFU, GTPBP10 / Fold change vs veh, GTPBP10 / RFU, CNEP1R1 / Fold change vs veh, CNEP1R1 / RFU, BIVM-ERCC5 /// ERCC5 / Fold change vs veh, BIVM-ERCC5 /// ERCC5 / RFU, ILF3 / Fold change vs veh, ILF3 / RFU 11762660_at / Fold change /veh 11762660_at / RFU VCAN (11757783_s_at) / Fold change /veh VCAN (11757783_s_at) / RFU DDX43 (11728927_at) / Fold change /veh DDX43 (11728927_at) / RFU KRT8 (11758188_x_at) / Fold change /veh KRT8 (11758188_x_at) / RFU NKD1 (11759106_at) / Fold change /veh NKD1 (11759106_at) / RFU SRD5A1 (11742802_a_at) / Fold change /veh SRD5A1 (11742802_a_at) / RFU TPSAB1 /// TPSB2 (11721975_s_at) / Fold change /veh TPSAB1 /// TPSB2 (11721975_s_at) / RFU GSTM3 (11746129_a_at) / Fold change /veh GSTM3 (11746129_a_at) / RFU IL23R (11737362_x_at) / Fold change /veh IL23R (11737362_x_at) / RFU TMEM51 (11727254_a_at) / Fold change /veh TMEM51 (11727254_a_at) / RFU PIWIL2 (11732686_x_at) / Fold change /veh PIWIL2 (11732686_x_at) / RFU ORM1 (11744905_x_at) / Fold change /veh ORM1 (11744905_x_at) / RFU CCDC152 (11743942_at) / Fold change /veh CCDC152 (11743942_at) / RFU ECM1 (11717891_a_at) / Fold change /veh ECM1 (11717891_a_at) / RFU IL23R (11748794_a_at) / Fold change /veh IL23R (11748794_a_at) / RFU TNFAIP8L3 (11732012_x_at) / Fold change /veh TNFAIP8L3 (11732012_x_at) / RFU MBOAT4 (11741988_at) / Fold change /veh MBOAT4 (11741988_at) / RFU 11764193_at / Fold change /veh 11764193_at / RFU TMEM53 (11763286_at) / Fold change /veh TMEM53 (11763286_at) / RFU MAGEB2 (11727129_at) / Fold change /veh MAGEB2 (11727129_at) / RFU TMEM200A (11744735_a_at) / Fold change /veh TMEM200A (11744735_a_at) / RFU CCDC152 (11751479_a_at) / Fold change /veh CCDC152 (11751479_a_at) / RFU FAM211A (11726209_a_at) / Fold change /veh FAM211A (11726209_a_at) / RFU RGS16 (11746705_a_at) / Fold change /veh RGS16 (11746705_a_at) / RFU VCAN (11755009_s_at) / Fold change /veh VCAN (11755009_s_at) / RFU RHOB (11743442_s_at) / Fold change /veh RHOB (11743442_s_at) / RFU RGS16 (11720943_a_at) / Fold change /veh RGS16 (11720943_a_at) / RFU RGS16 (11720944_at) / Fold change /veh RGS16 (11720944_at) / RFU, VPS4B / Fold change vs veh, VPS4B / RFU, CREB1 / Fold change vs veh, CREB1 / RFU, DNAJC13 / Fold change vs veh, DNAJC13 / RFU, GNAQ / Fold change vs veh, GNAQ / RFU, CDK5R1 / Fold change vs veh, CDK5R1 / RFU, ZRANB3 / Fold change vs veh, ZRANB3 / RFU, CUL4A / Fold change vs veh, CUL4A / RFU, CCNY / Fold change vs veh, CCNY / RFU, UFL1 / Fold change vs veh, UFL1 / RFU, COG3 / Fold change vs veh, COG3 / RFU, DIAPH2 / Fold change vs veh, DIAPH2 / RFU, SKA2 / Fold change vs veh, SKA2 / RFU, AFF3 / Fold change vs veh, AFF3 / RFU, LMF1 / Fold change vs veh, LMF1 / RFU, IPO11 / Fold change vs veh, IPO11 / RFU, DFFB / Fold change vs veh, DFFB / RFU, FOXP1 / Fold change vs veh, FOXP1 / RFU, CARD8 / Fold change vs veh, CARD8 / RFU, STRN3 / Fold change vs veh, STRN3 / RFU, ADK / Fold change vs veh, ADK / RFU, RASSF2 / Fold change vs veh, RASSF2 / RFU, WIPF1 / Fold change vs veh, WIPF1 / RFU, LARP1B / Fold change vs veh, LARP1B / RFU, RASA1 / Fold change vs veh, RASA1 / RFU, RB1 / Fold change vs veh, RB1 / RFU, PPFIA1 / Fold change vs veh, PPFIA1 / RFU, MAT2A / Fold change vs veh, MAT2A / RFU, CCT5 / Fold change vs veh, CCT5 / RFU, WDR92 / Fold change vs veh, WDR92 / RFU, CUX1 / Fold change vs veh, CUX1 / RFU, TTC7A / Fold change vs veh, TTC7A / RFU, TMEM135 / Fold change vs veh, TMEM135 / RFU, DEPTOR / Fold change vs veh, DEPTOR / RFU, CPM / Fold change vs veh, CPM / RFU, DNAJB6 / Fold change vs veh, DNAJB6 / RFU, CACNA2D3 / Fold change vs veh, CACNA2D3 / RFU, DTX4 / Fold change vs veh, DTX4 / RFU, TFCP2 / Fold change vs veh, TFCP2 / RFU, GMCL1 /// GMCL1P1 / Fold change vs veh, GMCL1 /// GMCL1P1 / RFU, AEBP2 / Fold change vs veh, AEBP2 / RFU, SNHG1 /// SNORD22 /// SNORD25 /// SNORD26 /// SNORD27 /// SNORD28 /// SNORD29 /// SNORD31 / Fold change vs veh, SNHG1 /// SNORD22 /// SNORD25 /// SNORD26 /// SNORD27 /// SNORD28 /// SNORD29 /// SNORD31 / Fold change (Aza/veh), C12orf56 (ProbeSet 11735607_a_at) / Fold change (ACY-1035/veh), C12orf56 (ProbeSet 11735607_a_at) / Fold change (Aza/veh), FGFR1OP (ProbeSet 11751329_s_at) / Fold change (ACY-1035/veh), FGFR1OP (ProbeSet 11751329_s_at) / Fold change (Aza/veh), VPS36 (ProbeSet 11739960_a_at) / Fold change (ACY-1035/veh), VPS36 (ProbeSet 11739960_a_at) / RFU SYPL1 (11715823_x_at) / Fold change /veh SYPL1 (11715823_x_at) / RFU IGFBP7 (11715501_s_at) / Fold change /veh IGFBP7 (11715501_s_at) / RFU REEP3 (11722064_at) / Fold change /veh REEP3 (11722064_at) / RFU IGLL1 (11728026_x_at) / Fold change /veh IGLL1 (11728026_x_at): dose or concentration left out as unconfirmed
Details: MV-4-11 cells, 48 hours

Structure (SMILES): Nc1ccc(-c2cccs2)cc1NC(=O)c1ccc2c(c1)cc(C1CC1)n2CCN1CCOCC1 [ACY-1035]
- Fold change /veh SOX15 (11748057_x_at): 0.91
